Measurements reported in patent US4426519A, “7-(2-Amino-4-thiazolyl)-acetamido cephalosporanic acids” (Roussel Uclaf, priority 1979, dated 1984).
Where a name gives a salt, the structure may show the parent alone. Read-outs that look alike come from different tables or passages of the source.

Experiments:
Assay in all cases: MIC, dilution in liquid medium
Format in all cases: cell-based
[1] = test system: Bacillus subtilis ATCC 6 633
Procedure: (§1) The method used was a dilution of a liquid medium where a series of tubes received the same quantity of a sterile nutritive media and increasing doses of the test compounds were placed therein. Then each tube was seeded with a bacterial strain and was incubated for 24 to 48 hours at 37° C. in an oven. The increasing inhibition was determined by transillulumination to determine the minimum inhibiting concentration (MIC in μg/ml) and the results are reported in the following Tables.

[2] = test system: Escherichia Coli Resistant Gentamycine, Tobramycine R 55 123 D
Procedure: as §1

[3] = test system: Escherichia Coli Resistant Tetracycline ATCC 11 303
Procedure: as §1

[4] = test system: Escherichia Coli sensitive Tetracycline ATCC 9 637
Procedure: as §1

[5] = test system: Klebsiella pneumoniae 2 536 Resistant Gentamycine
Procedure: as §1

[6] = test system: Klebsiella pneumoniae Exp. 52 145
Procedure: as §1

[7] = test system: Proteus mirabilis (indol-) A 235
Procedure: as §1

Providencia Du 48 = test system: Providencia Du 48
Procedure: as §1

[8] = test system: Salmonella typhimurium 420; conditions: Salmonella enterica
Procedure: as §1

[9] = test system: Serratia Resistant Gentamycine 2 532
Procedure: as §1

[10] = test system: Staphylococcus aureus ATCC 6 538 Pen Sensitive
Procedure: as §1

[11] = test system: Staphylococcus aureus UC 1 128 Pen-resistant
Procedure: as §1

[12] = test system: Staphylococcus aureus exp.n°54 146
Procedure: as §1

[13] = test system: Streptococcus faecalis 5 432; conditions: Enterococcus faecalis, 5432, 24 h
Procedure: as §1

[14] = test system: Streptococcus pyogenes A 561
Procedure: as §1

[15] = test system: Escherichia Coli Exp. TO26 B6
Procedure: as §1

Enterobacter cloacae 681 = test system: Enterobacter cloacae 681
Procedure: as §1

Measured: MIC

CC(=O)OCC1=C(C(=O)O)N2C(=O)C(NC(=O)/C(=N\OC(F)F)c3csc(N)n3)C2SC1 (stereo not drawn) [Example 9, Syn isomer of 3-acetoxymethyl-7-[2-(2-amino-4-thiazolyl)-2-difluoromethoxyimino-acetamido]-ceph-3-eme-4-carboxylic acid]
5 µg/mL: [1]; ATCC6, 48 h | [13]
0.2 µg/mL: [2]; 24 h, read-out: MIC | [2]; 48 h, read-out: MIC
0.05 µg/mL: [3]; ATCC11, 24 h | [6]; EXP.52145, 24 h, read-out: MIC | [6]; EXP.52145, 48 h, read-out: MIC | [7]; 24 h | [7]; 48 h | [14]; A561, 24 h | [14]; A561, 48 h
0.1 µg/mL: [3]; ATCC11, 48 h
2 µg/mL: Providencia Du 48; DU48, 24 h | Providencia Du 48; DU48, 48 h | [11]; UC1, 48 h | [12]; 48 h
1 µg/mL: [1]; ATCC6, 24 h | [4]; ATCC9, 48 h | [10]; ATCC6, 24 h | [10]; ATCC6, 48 h | [11]; UC1, 24 h | [12]; 24 h
0.5 µg/mL: [4]; ATCC9, 24 h, read-out: MIC | [5]; 24 h, read-out: MIC | [5]; 48 h, read-out: MIC | [8]; 24 h, read-out: MIC | [8]; 48 h, read-out: MIC | [9]; 24 h, read-out: MIC | [9]; 48 h, read-out: MIC

CC(=O)OCC1=C(C(=O)O)N2C(=O)C(NC(=O)/C(=N\OCCSC(=N)NN)c3csc(N)n3)C2SC1 (stereo not drawn) [Example 8, Internal salt of syn isomer of 3-acetoxymethyl-7-[2-(2-amino-4-thiazolyl)-2-(2-iminohydrazinomethylthioethoxyimino)acetamido]-ceph-3-eme-4-carboxylic acid]
0.02 µg/mL: [14]; A561, 24 h
5 µg/mL: [5]; 24 h
0.2 µg/mL: [7]; 24 h | [7]; 48 h
1 µg/mL: [1]; ATCC6, 24 h | [15]; 24 h | [15]; 48 h | [2]; 24 h | [2]; 48 h | [6]; EXP.52145, 24 h | [6]; EXP.52145, 48 h | [8]; 24 h | [9]; 24 h | [10]; ATCC6, 24 h | [12]; 24 h
3 µg/mL: [1]; ATCC6, 48 h
2 µg/mL: [4]; ATCC9, 24 h | [4]; ATCC9, 48 h | [8]; 48 h | [9]; 48 h | [10]; ATCC6, 48 h | [11]; UC1, 24 h | [11]; UC1, 48 h | [12]; 48 h
0.05 µg/mL: [14]; A561, 48 h
0.5 µg/mL: [3]; ATCC11, 24 h | [3]; ATCC11, 48 h
10 µg/mL: [5]; 48 h, read-out: MIC

[N-]=[N+]=NCC1=C(C(=O)O)N2C(=O)C(NC(=O)/C(=N\OCCSC(=N)N)c3csc(N)n3)C2SC1 (stereo not drawn) [Example 5, Internal salt of syn isomer of 3-azidomethyl-7-[2-(2-amino-4-thiazolyl)-2-(2-aminoiminomethylthioethoxyimino)-acetamido]-ceph-3-eme-4-carboxylic acid]
1 µg/mL: [2]; 24 h, read-out: MIC | [2]; 48 h, read-out: MIC | [6]; EXP.52145, 24 h, read-out: MIC | [6]; EXP.52145, 48 h, read-out: MIC | [8]; 24 h, read-out: MIC | [8]; 48 h, read-out: MIC | [9]; 24 h, read-out: MIC | [9]; 48 h, read-out: MIC | [10]; ATCC6, 24 h, read-out: MIC | [10]; ATCC6, 48 h, read-out: MIC | [11]; UC1, 24 h, read-out: MIC | [12]; 24 h, read-out: MIC
2 µg/mL: [1]; ATCC6, 24 h, read-out: MIC | [4]; ATCC9, 24 h, read-out: MIC | [4]; ATCC9, 48 h, read-out: MIC | [5]; 24 h, read-out: MIC | [11]; UC1, 48 h, read-out: MIC | [12]; 48 h, read-out: MIC
< 0.02 µg/mL: [14]; A561, 24 h
0.5 µg/mL: [15]; 24 h | [15]; 48 h
0.05 µg/mL: [14]; A561, 48 h
3 µg/mL: [1]; ATCC6, 48 h | Enterobacter cloacae 681; Enterobacter cloacae, 681, 24 h | Enterobacter cloacae 681; Enterobacter cloacae, 681, 48 h | [5]; 48 h
0.2 µg/mL: [3]; ATCC11, 24 h | [3]; ATCC11, 48 h | [7]; 24 h | [7]; 48 h
10 µg/mL: Providencia Du 48; DU48, 24 h, read-out: MIC | Providencia Du 48; DU48, 48 h, read-out: MIC
